# Data reported in article PMC13327620, “A Deep‐Red‐Absorbing Osmium(II) Complex as a Photosensitizer for Photodynamic Therapy Inducing Immunogenic Cell Death” (Angewandte Chemie (International Ed. in English), 2026).
# Read-outs that look alike come from different tables or passages of the source.
# Test system: mouse colon adenocarcinoma (CT-26) cells
# Assay: Resazurin cell viability assay, (photo)cytotoxicity under hypoxia (1% O2)
# Format: cell-based
# Experimental: (100 U ml−1), streptomycin (100 U ml−1), and 1% L-glutamine. The murine fibrosarcom a (MCA205) cells were cultured in RPMI 1640 medium with 10% fetal bovine serum (FBS), penicillin (100 U ml−1), streptomycin (100 U ml−1), and 1% L-glutamine. All cells were incubated at 37 °C in a humidified atmosphere with 5 % CO2.
# Normoxia. The in vitro viability of cells exposed to the complexes was determined using a resazurin assay. C ells were seeded in 96-well plates at densities of 4,000 cells/well for CT26, MC A205 and U-87 MG cells, and 8,000 cells/well for MRC-5 and NIH/3T3 cells. A fter 24 h of growth at 37 °C wit h 5% CO2, the medium was replaced with fresh medium containing various concentrations of the compounds . […] After a 40- h r ecov ery period, a f reshly pr epar ed resazurin solution (0.2 mg/mL) was added to each well, and the plates were left in the dark for 4 h before analysis on a B i o Te k Cytation 5 Cell Imaging Multimode Reader (Agil ent Technologies). […]
# Non-irradiat ed plates were similarly refreshed with medium and k ept in th e d ark fo r the same duration. After a 40 -h recovery period, a f res hly prepar ed resazurin solution (0.2 mg/mL) was added to each well, and the plates were left in the dark for 4 h before analysis on a BioTek Cytation 5 Cell Imaging Multimode Reader (Agilent […]
structure (smiles),measurement,setting,value
"C=Cc1c(C)c2cc3nc(c(CC(=O)O)c4[nH]c(cc5nc(cc1[nH]2)C(C)=C5CC)c(C)c4C(=O)O)[C@@H](CCC(=O)O)[C@@H]3C [Ce6, chlorin e6]",IC50,"CT26, CT-26, hypoxia (1% O2), dark, read-out: IC50 Dark",> 100 µM
same,IC50,"CT26, light or radiation study, 1 h, CT-26, hypoxia (1% O2), 740 nm, 60 min, 12.60 J/cm2, read-out: IC50 740 nm",5.63 ± 0.41 µM
